The values that follow come from US5834518A, “Use of N,N'-dibenzylethylenediamine-N,N'-diacetic acid derivatives as depigmenting agents” (L'Oreal, priority 1996, dated 1998).

As usually defined, the inhibition is the change of the read-out against control, counted positive when it falls.

Data set [1] relates to Human melanocytes. Kind of data set: cytotoxicity to cultured human melanocytes. The following applies: 0.1 mM, 0.25 mM, 0.5 mM and 0.75 mM in human melanocyte culture. In kind it is cell-based.
Data set [2] addresses T1, human melanocyte tyrosinase (Homo sapiens, UniProt P14679).
T1 construct: Human melanocytes are prepared and cultured; endogenous in cells; host or cells: cultured human melanocytes
T1 sequence (P14679 19-529): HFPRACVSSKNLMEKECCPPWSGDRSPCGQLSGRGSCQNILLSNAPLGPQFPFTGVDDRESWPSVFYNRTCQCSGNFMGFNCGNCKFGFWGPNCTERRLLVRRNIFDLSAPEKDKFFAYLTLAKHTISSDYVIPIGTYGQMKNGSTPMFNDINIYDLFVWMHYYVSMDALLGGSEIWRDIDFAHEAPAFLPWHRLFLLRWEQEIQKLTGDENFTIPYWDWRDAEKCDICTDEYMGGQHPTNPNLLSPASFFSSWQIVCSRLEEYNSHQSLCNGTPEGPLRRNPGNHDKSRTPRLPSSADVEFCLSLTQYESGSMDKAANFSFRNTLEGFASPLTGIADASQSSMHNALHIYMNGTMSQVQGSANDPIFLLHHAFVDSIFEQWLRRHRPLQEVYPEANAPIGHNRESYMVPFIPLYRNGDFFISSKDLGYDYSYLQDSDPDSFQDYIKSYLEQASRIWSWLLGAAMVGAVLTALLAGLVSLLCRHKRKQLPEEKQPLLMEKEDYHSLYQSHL
In words: dopa-oxidase activity of human melanocyte tyrosinase after culturing melanocytes with compound. The following applies: human melanocytes cultured three days, 5 mM L-dopa, absorbance 475 nm, read-out: Percentage of inhibition. The class given is cell-based. The procedure:
The effectiveness of the compound of formula (1) as a tyrosinase inhibitor is determined by evaluating its effect on the dopa-oxidase activity of human melanocyte tyrosinase. The compound tested is N,N'-di(3-hydroxybenzyl)ethylenediamine-N,N'-diacetic acid of formula (II): [drawing 5]
Human melanocytes are prepared and cultured and then introduced into media containing different, non-cytotoxic concentrations of the compound of formula (II) (0.1 mM, 0.25 mM, 0.5 mM and 0.75 mM). After three days, the melanocytes are "trypsinized" in a mixture of trypsin/0.05% EDTA/0.02% in a phosphate buffer (50 mM at pH 6.8), washed three times in the phosphate buffer containing 1% (w/v) Triton x-100 and subjected to ultrasound. After centrifugation, samples are taken and mixed with 5 mM L-dopa in phosphate buffer. The tyrosinase activity is evaluated by spectrophotometry by measuring the increase in the absorbance at 475 nm because of the formation of dopachrome from 5 mM dope. The absorbance is read on a microplate reader at 25° C. for 60 min.
The activity of the cellular tyrosinase is measured relative to a standard range prepared with commercial tyrosinase.

On to `O=C(O)CN(CCN(CC(=O)O)Cc1cccc(O)c1)Cc1cccc(O)c1` [compound of formula (II), N,N'-di(3-hydroxybenzyl)ethylenediamine-N,N'-diacetic acid], for which the “cytotoxicity of the concentrations used” value in data set [1] was “non-cytotoxic”. In addition, in data set [2] (0.1 mM compound), the inhibition at 100 µM was determined as 19%. The inhibition at 250 µM in data set [2] (0.25 mM compound) stood at 30%. Further, the inhibition at 500 µM in data set [2] (0.5 mM compound) turned out to be 33%. For the same molecule, in data set [2] (0.75 mM compound), the inhibition at 750 µM came out at 42%.
